Data from patent US9150632B2 (Indiana University Research and Technology Corporation, priority 2009, dated 2015).
Like-named read-outs stand apart in the source and are kept apart here. Positions of bridges follow the written chain, without caps; N, C: chain ends. Residues, ends and D or L forms follow the SMILES beside them.

Key:
[1] = biological target: T1, glucagon receptor (Homo sapiens, UniProt P47871); assay: Functional assay-cAMP synthesis, luciferase reporter in HEK293 cells, glucagon receptor; format: cell-based; parameters: % activity: concentration or dose not given beside the values; conditions: for Glucagon Receptor Relative Potency: Table 11; for % Activity of Glucagon: Table 21, relative to the native peptide
T1 construct: expressed in transfected cells; host or cells: HEK293
T1 sequence (P47871 26-477): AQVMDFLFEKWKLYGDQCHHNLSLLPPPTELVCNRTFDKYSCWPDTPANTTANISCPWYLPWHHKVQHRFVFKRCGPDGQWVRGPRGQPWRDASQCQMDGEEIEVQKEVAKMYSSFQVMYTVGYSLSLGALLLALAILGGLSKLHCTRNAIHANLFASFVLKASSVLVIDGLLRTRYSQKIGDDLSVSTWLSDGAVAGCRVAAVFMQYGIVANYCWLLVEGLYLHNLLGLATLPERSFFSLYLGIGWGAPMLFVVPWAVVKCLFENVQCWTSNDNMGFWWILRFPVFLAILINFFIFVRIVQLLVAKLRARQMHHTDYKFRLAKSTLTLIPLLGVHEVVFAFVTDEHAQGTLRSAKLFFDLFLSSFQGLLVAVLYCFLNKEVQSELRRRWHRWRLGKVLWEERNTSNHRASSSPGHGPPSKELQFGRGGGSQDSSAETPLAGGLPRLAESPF

[2] = biological target: GLP-1 receptor (Homo sapiens, UniProt P43220); conditions: for GLP-1 Receptor Relative Potency: Table 11; for % Activity of GLP-1: Table 21, relative to the native peptide
GLP-1 receptor, sequence (P43220 24-463, species assumed): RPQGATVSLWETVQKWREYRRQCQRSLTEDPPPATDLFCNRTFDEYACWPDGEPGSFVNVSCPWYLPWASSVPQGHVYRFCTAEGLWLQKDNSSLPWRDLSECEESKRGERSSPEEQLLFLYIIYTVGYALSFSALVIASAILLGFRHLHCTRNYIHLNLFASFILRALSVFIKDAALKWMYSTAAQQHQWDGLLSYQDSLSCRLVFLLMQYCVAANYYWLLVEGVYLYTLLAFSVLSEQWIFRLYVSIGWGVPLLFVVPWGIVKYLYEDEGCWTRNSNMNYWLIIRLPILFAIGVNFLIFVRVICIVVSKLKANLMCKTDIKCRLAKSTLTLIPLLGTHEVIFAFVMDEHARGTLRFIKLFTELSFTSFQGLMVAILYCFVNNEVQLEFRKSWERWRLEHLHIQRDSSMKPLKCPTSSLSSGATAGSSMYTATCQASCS

[3] = Table 18, relative to the native hormone of the indicated receptor

Row | SMILES | % Activity of Glucagon [1] | % Activity of GLP-1 [2] | GLP-1 Receptor Relative Potency [2] | further results
1 | CSCC[C@H](NC(=O)[C@H](CC(C)C)NC(=O)[C@H](Cc1c[nH]c2ccccc12)NC(=O)[C@H](CCC(N)=O)NC(=O)[C@@H](NC(=O)[C@H](Cc1ccccc1)NC(=O)[C@H](CC(=O)O)NC(=O)[C@H](CCC(N)=O)NC(=O)[C@H](C)NC(=O)[C@H](CCCNC(=N)N)NC(=O)[C@H](CCCNC(=N)N)NC(=O)[C@H](CO)NC(=O)[C@H](CC(=O)O)NC(=O)[C@H](CC(C)C)NC(=O)[C@H](Cc1ccc(O)cc1)NC(=O)[C@H](CCCCN)NC(=O)[C@H](CO)NC(=O)[C@H](Cc1ccc(O)cc1)NC(=O)[C@H](CC(=O)O)NC(=O)[C@H](CO)NC(=O)[C@@H](NC(=O)[C@H](Cc1ccccc1)NC(=O)[C@@H](NC(=O)CNC(=O)[C@H](CCC(N)=O)NC(=O)[C@H](CO)NC(=O)[C@@H](N)Cc1c[nH]cn1)[C@@H](C)O)[C@@H](C)O)C(C)C)C(=O)N[C@@H](CC(N)=O)C(=O)NCC(=O)NCC(=O)N1CCC[C@H]1C(=O)N[C@@H](CO)C(=O)N[C@@H](CO)C(=O)NCC(=O)N[C@@H](C)C(=O)N1CCC[C@H]1C(=O)N1CCC[C@H]1C(=O)N1CCC[C@H]1C(=O)N[C@@H](CO)C(N)=O [MNGG^30 PSSGAPPPS (SEQ ID NO: 522)] |  |  | 8% | Glucagon Receptor Relative Potency [1]: 30%
2 | CSCC[C@H](NC(=O)[C@H](CC(C)C)NC(=O)[C@H](Cc1c[nH]c2ccccc12)NC(=O)[C@H](CCC(N)=O)NC(=O)[C@@H](NC(=O)[C@H](Cc1ccccc1)NC(=O)[C@H](CC(=O)O)NC(=O)[C@H](CCCCN)NC(=O)[C@H](C)NC(=O)[C@H](CCCNC(=N)N)NC(=O)[C@H](CCCNC(=N)N)NC(=O)[C@H](CCC(=O)O)NC(=O)[C@H](CC(=O)O)NC(=O)[C@H](CC(C)C)NC(=O)[C@H](Cc1ccc(O)cc1)NC(=O)[C@H](CCCCN)NC(=O)[C@H](CO)NC(=O)[C@H](Cc1ccc(O)cc1)NC(=O)[C@H](CC(=O)O)NC(=O)[C@H](CO)NC(=O)[C@@H](NC(=O)[C@H](Cc1ccccc1)NC(=O)[C@@H](NC(=O)CNC(=O)[C@H](CCC(N)=O)NC(=O)[C@H](CO)NC(=O)[C@@H](N)Cc1c[nH]cn1)[C@@H](C)O)[C@@H](C)O)C(C)C)C(=O)N[C@@H](CC(N)=O)C(=O)N[C@H](C(N)=O)[C@@H](C)O [E16, K20 Gluc-NH2] |  |  |  | Percent Potency Relative to Native Ligand GRec ([1]; Table 5): 130.1%; Percent Potency Relative to Native Ligand GRec ([1]; Table 9): 130.1%; Percent Potency Relative to Native Ligand GLP-1Rec ([2]; Table 5): 41.5%; Percent Potency Relative to Native Ligand GLP-1Rec ([2]; Table 9): 41.5%
3 | CSCC[C@H](NC(=O)[C@H](CC(C)C)NC(=O)[C@H](Cc1c[nH]c2ccccc12)NC(=O)[C@H](CCC(N)=O)NC(=O)[C@@H](NC(=O)[C@H](Cc1ccccc1)NC(=O)[C@H](CC(=O)O)NC(=O)[C@H](CCC(N)=O)NC(=O)[C@H](C)NC(=O)[C@H](CCCNC(=N)N)NC(=O)[C@H](CCCNC(=N)N)NC(=O)[C@H](CO)NC(=O)[C@H](CC(=O)O)NC(=O)[C@H](CC(C)C)NC(=O)[C@H](Cc1ccc(O)cc1)NC(=O)[C@H](CCCCN)NC(=O)[C@H](CO)NC(=O)[C@H](Cc1ccc(O)cc1)NC(=O)[C@H](CC(=O)O)NC(=O)[C@H](CO)NC(=O)[C@@H](NC(=O)[C@H](Cc1ccccc1)NC(=O)[C@@H](NC(=O)CNC(=O)[C@H](CCC(N)=O)NC(=O)[C@H](CO)NC(=O)[C@@H](N)Cc1c[nH]cn1)[C@@H](C)O)[C@@H](C)O)C(C)C)C(=O)N[C@@H](CCCCN)C(=O)NCC(=O)NCC(=O)N1CCC[C@H]1C(=O)N[C@@H](CO)C(=O)N[C@@H](CO)C(=O)NCC(=O)N[C@@H](C)C(=O)N1CCC[C@H]1C(=O)N1CCC[C@H]1C(=O)N1CCC[C@H]1C(=O)N[C@@H](CO)C(N)=O [MKGG^30 PSSGAPPPS (SEQ ID NO: 523)] |  |  | 3% | Glucagon Receptor Relative Potency [1]: 14%
4 | CC[C@H](C)[C@H](NC(=O)[C@H](Cc1ccccc1)NC(=O)[C@H](CCC(=O)O)NC(=O)[C@H](CCCCN)NC(=O)[C@H](C)NC(=O)[C@H](C)NC(=O)[C@H](CCC(N)=O)NC(=O)CNC(=O)[C@H](CCC(=O)O)NC(=O)[C@H](CC(C)C)NC(=O)[C@H](Cc1ccc(O)cc1)NC(=O)[C@H](CO)NC(=O)[C@H](CO)NC(=O)[C@@H](NC(=O)[C@H](CC(=O)O)NC(=O)[C@H](CO)NC(=O)[C@@H](NC(=O)[C@H](Cc1ccccc1)NC(=O)[C@@H](NC(=O)CNC(=O)[C@H](CCC(=O)O)NC(=O)[C@H](C)NC(=O)[C@@H](N)Cc1c[nH]cn1)[C@@H](C)O)[C@@H](C)O)C(C)C)C(=O)N[C@@H](C)C(=O)N[C@@H](Cc1c[nH]c2ccccc12)C(=O)N[C@@H](CC(C)C)C(=O)N[C@H](C(=O)N[C@@H](CCCCN)C(=O)NCC(=O)NCC(N)=O)C(C)C [GLP-1-VKGG^30 (SEQ ID NO: 527), HAEGTFTSDVSSYLEGQAAKEFIAW LVKGGa, reference compound] |  |  | 100% | 
5 | CSCC[C@H](NC(=O)[C@H](CC(C)C)NC(=O)[C@H](Cc1c[nH]c2ccccc12)NC(=O)[C@H](CC(N)=O)NC(=O)[C@@H](NC(=O)[C@H](Cc1ccccc1)NC(=O)[C@H](CCC(=O)O)NC(=O)[C@@H]1CCCCNC(=O)CC[C@H](NC(=O)[C@H](CC(=O)O)NC(=O)[C@H](CC(C)C)NC(=O)[C@H](Cc2ccc(O)cc2)NC(=O)[C@H](CCCCN)NC(=O)[C@H](CO)NC(=O)[C@H](Cc2ccc(O)cc2)NC(=O)[C@H](CC(=O)O)NC(=O)[C@H](CO)NC(=O)[C@@H](NC(=O)[C@H](Cc2ccccc2)NC(=O)[C@@H](NC(=O)CNC(=O)[C@H](CCC(N)=O)NC(=O)[C@H](CO)NC(=O)[C@@H](N)Cc2ccc(O)cc2)[C@@H](C)O)[C@@H](C)O)C(=O)N[C@@H](CCC(N)=O)C(=O)N[C@@H](C)C(=O)N[C@@H](C)C(=O)N1)C(C)C)C(=O)N[C@@H](CC(N)=O)C(=O)NCC(=O)NCC(=O)N1CCC[C@H]1C(=O)N[C@@H](CO)C(=O)N[C@@H](CO)C(=O)NCC(=O)N[C@@H](C)C(=O)N1CCC[C@H]1C(=O)N1CCC[C@H]1C(=O)N1CCC[C@H]1C(=O)N[C@@H](CO)C(N)=O [SEQ ID NO: 555] (H-YSQGTFTSDYSKYLDEQAAKEFVNWLMNGGPSSGAPPPS-NH2; lactam 16-20; N-terminus assumed) |  |  |  | Relative Activity, Glucagon receptor [1, 3]: 343.18%; Relative Activity, GLP-1 receptor [2, 3]: 100.00%
6 | CSCC[C@H](NC(=O)[C@H](CC(C)C)NC(=O)[C@H](Cc1c[nH]c2ccccc12)NC(=O)[C@H](C)NC(=O)[C@@H](NC(=O)[C@H](Cc1ccccc1)NC(=O)[C@H](CC(=O)O)NC(=O)[C@H](C)NC(=O)[C@H](C)NC(=O)[C@H](CCCNC(=N)N)NC(=O)[C@H](CCCNC(=N)N)NC(=O)C(C)(C)NC(=O)[C@H](CC(=O)O)NC(=O)[C@H](CC(C)C)NC(=O)[C@H](Cc1ccc(O)cc1)NC(=O)[C@H](CCCCN)NC(=O)[C@H](CO)NC(=O)[C@H](Cc1ccc(O)cc1)NC(=O)[C@H](CC(=O)O)NC(=O)[C@H](CO)NC(=O)[C@@H](NC(=O)[C@H](Cc1ccccc1)NC(=O)[C@@H](NC(=O)CNC(=O)[C@H](CCC(N)=O)NC(=O)[C@H](CO)NC(=O)[C@@H](N)Cc1c[nH]cn1)[C@@H](C)O)[C@@H](C)O)C(C)C)C(=O)N[C@@H](CC(=O)O)C(=O)N[C@@H](CCC(=O)O)C(=O)O [SEQ ID NO: 600] |  |  |  | % activity ([1]; Table 26, glucagon receptor): 15%

Continued, in another order:

Row | % Activity of Glucagon [1] | % Activity of GLP-1 [2] | SMILES | GLP-1 Receptor Relative Potency [2] | further results
7 | 77.3% | 33.3% | CCCCCCCCCCCCCC(=O)NCCCC[C@H](NC(=O)[C@H](CC(=O)O)NC(=O)[C@H](CO)NC(=O)[C@@H](NC(=O)[C@H](Cc1ccccc1)NC(=O)[C@@H](NC(=O)CNC(=O)[C@H](CCC(N)=O)NC(=O)C(C)(C)NC(=O)[C@@H](N)Cc1c[nH]cn1)[C@@H](C)O)[C@@H](C)O)C(=O)N[C@@H](CO)C(=O)N[C@@H](CCCCN)C(=O)N[C@@H](Cc1ccc(O)cc1)C(=O)N[C@@H](CC(C)C)C(=O)N[C@@H](CC(=O)O)C(=O)NC(C)(C)C(=O)N[C@@H](CCCNC(=N)N)C(=O)N[C@@H](CCCNC(=N)N)C(=O)N[C@@H](C)C(=O)N[C@@H](CCC(N)=O)C(=O)N[C@@H](CC(=O)O)C(=O)N[C@@H](Cc1ccccc1)C(=O)N[C@H](C(=O)N[C@@H](CCC(N)=O)C(=O)N[C@@H](Cc1c[nH]c2ccccc12)C(=O)N[C@@H](CC(C)C)C(=O)N[C@@H](CCSC)C(=O)N[C@@H](CC(N)=O)C(=O)N[C@H](C(N)=O)[C@@H](C)O)C(C)C [AIB2, AIB16, K10(C14) Gluc Amide] |  | 
8 | 170% | 72.3% | CCCCCCCCCCCCCCCC(=O)NCCCC[C@H](NC(=O)[C@H](CC(=O)O)NC(=O)[C@H](CO)NC(=O)[C@@H](NC(=O)[C@H](Cc1ccccc1)NC(=O)[C@@H](NC(=O)CNC(=O)[C@H](CCC(N)=O)NC(=O)C(C)(C)NC(=O)[C@@H](N)Cc1c[nH]cn1)[C@@H](C)O)[C@@H](C)O)C(=O)N[C@@H](CO)C(=O)N[C@@H](CCCCN)C(=O)N[C@@H](Cc1ccc(O)cc1)C(=O)N[C@@H](CC(C)C)C(=O)N[C@@H](CC(=O)O)C(=O)NC(C)(C)C(=O)N[C@@H](CCCNC(=N)N)C(=O)N[C@@H](CCCNC(=N)N)C(=O)N[C@@H](C)C(=O)N[C@@H](CCC(N)=O)C(=O)N[C@@H](CC(=O)O)C(=O)N[C@@H](Cc1ccccc1)C(=O)N[C@H](C(=O)N[C@@H](CCC(N)=O)C(=O)N[C@@H](Cc1c[nH]c2ccccc12)C(=O)N[C@@H](CC(C)C)C(=O)N[C@@H](CCSC)C(=O)N[C@@H](CC(N)=O)C(=O)N[C@H](C(N)=O)[C@@H](C)O)C(C)C [AIB2, AIB16, K10(C16) Gluc Amide] |  | 
9 | 212.5% | 88.9% | CCCCCCCCCCCCCCCCCC(=O)NCCCC[C@H](NC(=O)[C@H](CC(=O)O)NC(=O)[C@H](CO)NC(=O)[C@@H](NC(=O)[C@H](Cc1ccccc1)NC(=O)[C@@H](NC(=O)CNC(=O)[C@H](CCC(N)=O)NC(=O)C(C)(C)NC(=O)[C@@H](N)Cc1c[nH]cn1)[C@@H](C)O)[C@@H](C)O)C(=O)N[C@@H](CO)C(=O)N[C@@H](CCCCN)C(=O)N[C@@H](Cc1ccc(O)cc1)C(=O)N[C@@H](CC(C)C)C(=O)N[C@@H](CC(=O)O)C(=O)NC(C)(C)C(=O)N[C@@H](CCCNC(=N)N)C(=O)N[C@@H](CCCNC(=N)N)C(=O)N[C@@H](C)C(=O)N[C@@H](CCC(N)=O)C(=O)N[C@@H](CC(=O)O)C(=O)N[C@@H](Cc1ccccc1)C(=O)N[C@H](C(=O)N[C@@H](CCC(N)=O)C(=O)N[C@@H](Cc1c[nH]c2ccccc12)C(=O)N[C@@H](CC(C)C)C(=O)N[C@@H](CCSC)C(=O)N[C@@H](CC(N)=O)C(=O)N[C@H](C(N)=O)[C@@H](C)O)C(C)C [AIB2, AIB16, K10(C18) Gluc Amide] |  | 
